Where two headings read alike, the source gives them in different places.
Columns and labels:
[1] = molecular target: GlunN1/GluN2A glutamate receptors (Homo sapiens (Human), UniProt Q05586+Q12879); assay: Whole-cell patch clamp of mammalian cells (Ionworks Barracuda), positive allosteric modulation, GluN1/GluN2A; type: cell-based
Method: (§1) The measurements were performed using Ion Works Barracuda platform following this procedure:
(§2) Electrophysiological Procedures:
(§3) • a) Intracellular solution (mM): 50 mM CsCl, 90 mM CsF, 2 mM MgCl2, 5 mM EGTA, 10 mM HEPES. Adjust to pH 7.2 with CsOH. • b) Extracellular solution, HB-PS (composition in mM): NaCl, 137; KCl, 1.0; CaCl2), 5; HEPES, 10; Glucose, 10; pH adjusted to 7.4 with NaOH (refrigerated until use). • c) Holding potential: −70 mV, potential during agonist/PAM application: −40 mV. Recording Procedure: • a) Extracellular buffer will be loaded into the PPC plate wells (11 μL per well). Cell suspension will be pipetted into the wells (9 μL per well) of the PPC planar electrode. • b) Whole-cell recording configuration will be established via patch perforation with membrane currents recorded by on-board patch clamp amplifiers. • c) Two recordings (scans) will be performed. First, during pre-application of test article alone (duration of pre-application—[…]) and second, during test articles and agonist (EC20 L-glutamate and 30 μM glycine) co-application to detect positive modulatory effects of the test article. […] Potentiating Effect of Positive Allosteric Modulators (PAM) on the Channel
(§4) PAM concentration-response data will be fitted to an equation of the form: % Activation=% L-glutamate EC20+{(% MAX−% L-glutamate EC20)/[1+([Test]/EC50)^N]}, where [Test] will be the concentration of PAM (test article), EC50 will be the concentration of PAM producing half-maximal activation, N will be the Hill coefficient, % L-glutamate EC20 will be the percentage of the current Elicited with L-glutamate EC20, % MAX is the percentage of the current activated with the highest dose of PAM co-admitted with L-glutamate EC20 and % Activation will be the percentage of the current elicited with L-glutamate EC10-30 at each PAM concentration. The maximal amplitude of the evoked currents are measured and defined as Peak Current Amplitude (PCA).

[2] = molecular target: GluN2B glutamate receptors (Homo sapiens (Human), UniProt Q05586+Q13224); assay: Whole-cell patch clamp of mammalian cells (Ionworks Barracuda), positive allosteric modulation, GluN2B; type: cell-based; conditions: for Emax: read-out: Avg Emax 2B (%)
GluN2B glutamate receptors, sequence (Q13224 27-1484, other chains not shown): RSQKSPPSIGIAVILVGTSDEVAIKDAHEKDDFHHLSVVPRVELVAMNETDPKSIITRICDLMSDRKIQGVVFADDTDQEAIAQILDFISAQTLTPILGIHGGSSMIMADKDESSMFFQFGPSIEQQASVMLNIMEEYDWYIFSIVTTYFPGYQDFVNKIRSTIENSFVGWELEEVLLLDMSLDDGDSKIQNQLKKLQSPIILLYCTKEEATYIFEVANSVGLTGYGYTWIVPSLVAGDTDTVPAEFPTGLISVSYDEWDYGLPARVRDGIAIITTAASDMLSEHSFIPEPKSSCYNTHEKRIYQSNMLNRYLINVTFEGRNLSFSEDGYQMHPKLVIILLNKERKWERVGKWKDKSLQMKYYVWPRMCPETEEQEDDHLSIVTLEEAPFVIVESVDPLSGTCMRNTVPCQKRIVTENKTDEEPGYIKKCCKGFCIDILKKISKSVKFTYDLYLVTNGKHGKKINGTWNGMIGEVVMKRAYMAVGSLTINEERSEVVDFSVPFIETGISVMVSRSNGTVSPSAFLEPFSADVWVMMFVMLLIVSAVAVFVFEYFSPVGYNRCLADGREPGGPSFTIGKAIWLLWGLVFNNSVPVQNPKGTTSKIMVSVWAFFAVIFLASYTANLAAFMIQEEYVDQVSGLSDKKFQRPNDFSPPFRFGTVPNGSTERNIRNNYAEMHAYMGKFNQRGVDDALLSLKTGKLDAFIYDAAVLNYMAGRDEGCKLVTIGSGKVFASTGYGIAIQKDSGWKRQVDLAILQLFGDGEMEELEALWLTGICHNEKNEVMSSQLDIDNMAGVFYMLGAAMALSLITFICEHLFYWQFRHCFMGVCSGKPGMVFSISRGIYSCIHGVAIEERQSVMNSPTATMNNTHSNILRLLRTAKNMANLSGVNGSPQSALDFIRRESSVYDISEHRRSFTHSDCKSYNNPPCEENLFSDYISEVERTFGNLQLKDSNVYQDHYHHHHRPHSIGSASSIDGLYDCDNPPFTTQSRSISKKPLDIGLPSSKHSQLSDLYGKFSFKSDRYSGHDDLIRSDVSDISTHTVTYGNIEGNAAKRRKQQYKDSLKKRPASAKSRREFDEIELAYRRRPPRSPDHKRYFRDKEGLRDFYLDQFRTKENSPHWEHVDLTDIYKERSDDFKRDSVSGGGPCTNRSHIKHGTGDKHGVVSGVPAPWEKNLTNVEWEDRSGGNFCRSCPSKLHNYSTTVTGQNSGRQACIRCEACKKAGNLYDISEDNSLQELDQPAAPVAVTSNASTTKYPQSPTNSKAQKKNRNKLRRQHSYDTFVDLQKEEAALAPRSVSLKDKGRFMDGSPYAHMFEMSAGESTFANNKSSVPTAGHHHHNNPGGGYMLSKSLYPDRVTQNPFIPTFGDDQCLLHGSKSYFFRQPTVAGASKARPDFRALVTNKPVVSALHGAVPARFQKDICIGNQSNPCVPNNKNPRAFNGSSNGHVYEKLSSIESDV
Method: as §1, §2, §3, §4

[3] = HEK293 cells, % potentiation of current elicited with EC20 L-glutamate and 30 μM glycine, read-out: Avg Emax 2A (%)
[4] = % potentiation of current elicited with EC20 L-glutamate and 30 μM glycine
[5] = HEK293 cells, co-application with EC20 L-glutamate and 30 μM glycine, 8-point concentration-response, read-out: Avg EC50 2A
[6] = co-application with EC20 L-glutamate and 30 μM glycine, 8-point concentration-response, read-out: Avg EC50 2B

GlunN1/GluN2A glutamate receptors, sequence (Q12879 23-1464, other chains not shown): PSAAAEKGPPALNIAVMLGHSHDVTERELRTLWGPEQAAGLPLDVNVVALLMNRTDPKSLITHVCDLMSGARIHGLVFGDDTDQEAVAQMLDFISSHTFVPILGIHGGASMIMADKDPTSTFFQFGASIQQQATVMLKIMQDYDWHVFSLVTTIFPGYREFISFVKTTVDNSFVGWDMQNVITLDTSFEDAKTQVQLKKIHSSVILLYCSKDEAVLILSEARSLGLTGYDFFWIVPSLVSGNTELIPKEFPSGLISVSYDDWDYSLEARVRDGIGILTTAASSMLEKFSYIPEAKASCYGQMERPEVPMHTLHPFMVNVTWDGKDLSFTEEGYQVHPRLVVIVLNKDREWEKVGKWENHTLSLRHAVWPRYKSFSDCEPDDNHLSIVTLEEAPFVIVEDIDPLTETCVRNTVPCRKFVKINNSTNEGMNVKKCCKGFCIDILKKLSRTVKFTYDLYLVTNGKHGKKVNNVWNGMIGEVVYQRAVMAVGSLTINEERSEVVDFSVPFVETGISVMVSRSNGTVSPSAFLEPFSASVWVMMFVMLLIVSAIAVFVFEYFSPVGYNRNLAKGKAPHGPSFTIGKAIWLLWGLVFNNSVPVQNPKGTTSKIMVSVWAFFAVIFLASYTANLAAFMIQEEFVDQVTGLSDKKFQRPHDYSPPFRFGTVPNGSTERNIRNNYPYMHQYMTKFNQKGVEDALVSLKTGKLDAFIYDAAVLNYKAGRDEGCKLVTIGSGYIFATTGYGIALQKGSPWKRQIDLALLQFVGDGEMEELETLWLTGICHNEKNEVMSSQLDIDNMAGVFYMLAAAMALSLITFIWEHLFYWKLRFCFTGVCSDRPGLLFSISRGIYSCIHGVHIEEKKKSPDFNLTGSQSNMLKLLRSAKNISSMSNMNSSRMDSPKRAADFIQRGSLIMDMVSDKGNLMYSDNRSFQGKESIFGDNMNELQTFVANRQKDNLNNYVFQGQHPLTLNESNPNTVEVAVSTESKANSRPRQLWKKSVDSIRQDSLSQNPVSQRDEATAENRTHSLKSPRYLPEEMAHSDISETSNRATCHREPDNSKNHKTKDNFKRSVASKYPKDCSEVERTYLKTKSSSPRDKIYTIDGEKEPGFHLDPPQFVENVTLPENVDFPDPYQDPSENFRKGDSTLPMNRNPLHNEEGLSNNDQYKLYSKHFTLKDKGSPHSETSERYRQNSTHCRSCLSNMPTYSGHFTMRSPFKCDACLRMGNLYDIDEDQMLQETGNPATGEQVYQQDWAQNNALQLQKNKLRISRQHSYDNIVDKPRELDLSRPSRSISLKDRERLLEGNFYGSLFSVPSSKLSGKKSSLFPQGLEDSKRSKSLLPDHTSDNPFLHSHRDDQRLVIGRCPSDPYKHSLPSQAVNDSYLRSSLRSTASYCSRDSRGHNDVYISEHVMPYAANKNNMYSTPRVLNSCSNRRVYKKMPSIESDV

Compound	EC50 [1] [nM]	Emax [1, 3] [%]	EC50 [2] [nM]	Emax [2, 4] [%]	EC50 [1, 5] [nM]	Emax ([1]; HEK293, read-out: Avg Emax 2A (%)) [%]	Emax [2] [%]	EC50 [2, 6] [nM]
CC[C@]1(O)CC[C@@]2(C)C(=CC[C@H]3[C@@H]4CC[C@H]([C@H](C)CC[C@@H](O)c5ccc(C#N)cc5)[C@@]4(C)CC[C@@H]32)C1 (single isomer, unassigned) [Compound 6680]	1370	175	464	123	–	–	–	–
CC[C@]1(O)CC[C@@]2(C)C(=CC[C@H]3[C@@H]4CC[C@H]([C@H](C)CC[C@H](O)c5ccc(C#N)cc5)[C@@]4(C)CC[C@@H]32)C1 (single isomer, unassigned) [Compound 6681]	365	172	360	165	–	–	–	–
CC[C@]1(O)CC[C@@]2(C)C(=CC[C@H]3[C@@H]4CC[C@H]([C@H](C)CC[C@@H](O)c5cccc(F)c5)[C@@]4(C)CC[C@@H]32)C1 (single isomer, unassigned) [Compound 6895]	174	241	329	354	–	–	–	–
CC[C@]1(O)CC[C@@]2(C)C(=CC[C@H]3[C@@H]4CC[C@H]([C@H](C)CC[C@H](O)c5ccccc5F)[C@@]4(C)CC[C@@H]32)C1 (single isomer, unassigned) [Compound 7281]	248	–	303	–	–	–	–	–
CC[C@]1(O)CC[C@H]2C(=CC[C@@H]3[C@@H]2CC[C@]2(C)[C@@H]([C@H](C)CC[C@@]4(O)CCOC4)CC[C@@H]32)C1 (single isomer, unassigned) [Compound 8602]	1050	–	434	–	–	–	–	–
C[C@H](CC[C@H](O)C1CCC1)[C@H]1CC[C@H]2[C@@H]3CC[C@H]4C[C@](O)(C(F)(F)F)CC[C@]4(C)[C@H]3CC[C@]12C [7−A]	248	544	187	431	–	–	–	–
C[C@H](CC[C@@H](O)C1CCC1)[C@H]1CC[C@H]2[C@@H]3CC[C@H]4C[C@](O)(C(F)(F)F)CC[C@]4(C)[C@H]3CC[C@]12C [7−B]	347	356	306	352	–	–	–	–
CC(C)[C@@H](O)CC[C@@H](C)[C@H]1CC[C@H]2[C@@H]3CC[C@H]4C[C@@](C)(O)CC[C@@H]4[C@H]3CC[C@]12C [Compound 1A75]	–	457	–	308	–	–	–	–
CC(C)[C@H](O)CC[C@@H](C)[C@H]1CC[C@H]2[C@@H]3CC[C@H]4C[C@@](C)(O)CC[C@@H]4[C@H]3CC[C@]12C [Compound 1B75]	–	279	–	233	–	–	–	–
CC(C)[C@@H](O)CC[C@@H](C)[C@H]1CC[C@H]2[C@@H]3CC[C@H]4C[C@](O)(C(F)(F)F)CC[C@]4(C)[C@H]3CC[C@]12C [Compound 2A]	–	653	339	–	158	–	–	–
CC(C)[C@H](O)CC[C@@H](C)[C@H]1CC[C@H]2[C@@H]3CC[C@H]4C[C@](O)(C(F)(F)F)CC[C@]4(C)[C@H]3CC[C@]12C [Compound 2B]	131	625	143	965	–	–	–	–
CC(C)C(O)CC[C@@H](C)[C@H]1CC[C@H]2[C@@H]3CC[C@H]4C[C@](O)(C(F)(F)F)CC[C@]4(C)[C@H]3CC[C@]12C (stereo partly drawn) [Compound 2]	–	709	147	605	–	–	–	–
C[C@H](CCC(O)C(C)(C)C)[C@H]1CC[C@H]2[C@@H]3CC[C@H]4C[C@](O)(C(F)(F)F)CC[C@]4(C)[C@H]3CC[C@]12C (stereo partly drawn) [Compound 3]	185	–	338	–	–	556	532	–
CC[C@]1(O)CC[C@H]2[C@@H](CC[C@@H]3[C@@H]2CC[C@]2(C)[C@@H]([C@H](C)CC[C@H](O)C(C)C)CC[C@@H]32)C1 [Compound 4A77]	–	382	–	254	427	–	–	285
CC[C@]1(O)CC[C@H]2[C@@H](CC[C@@H]3[C@@H]2CC[C@]2(C)[C@@H]([C@H](C)CC[C@@H](O)C(C)C)CC[C@@H]32)C1 [Compound 4B77]	–	467	–	320	467	–	–	298
C[C@H](CC[C@](C)(O)C(F)(F)F)[C@H]1CC[C@H]2[C@@H]3CC[C@H]4C[C@](O)(C(F)(F)F)CC[C@]4(C)[C@H]3CC[C@]12C [Compound 4]	201	663	212	463	–	–	–	–
C[C@H](CC[C@@H](O)C(F)(F)F)[C@H]1CC[C@H]2[C@@H]3CC[C@H]4C[C@](O)(C(F)(F)F)CC[C@]4(C)[C@H]3CC[C@]12C [Compound 5]	182	619	260	455	–	–	–	–
C[C@H](O)CC[C@@H](C)[C@H]1CC[C@H]2[C@@H]3CC[C@H]4C[C@](O)(C(F)(F)F)CC[C@]4(C)[C@H]3CC[C@]12C [Compound 6]	248	–	733	–	–	–	–	–
C[C@H](CCC(O)C1CCC1)[C@H]1CC[C@H]2[C@@H]3CC[C@H]4C[C@](O)(C(F)(F)F)CC[C@]4(C)[C@H]3CC[C@]12C (stereo partly drawn) [Compound 7]	–	516	–	484	300	–	–	287
C[C@H](CCC1(O)CCC(F)(F)CC1)[C@H]1CC[C@H]2[C@@H]3CC[C@H]4C[C@](O)(C(F)(F)F)CC[C@]4(C)[C@H]3CC[C@]12C [Compound 8]	446	–	372	–	–	–	–	–
C[C@H](CCC(O)C1CCOCC1)[C@H]1CC[C@H]2[C@@H]3CC[C@H]4C[C@](O)(C(F)(F)F)CC[C@]4(C)[C@H]3CC[C@]12C (stereo partly drawn) [Compound 9]	317	181	234	271	–	–	–	–
C[C@H](CCC1(O)CCOCC1)[C@H]1CC[C@H]2[C@@H]3CC[C@H]4C[C@](O)(C(F)(F)F)CC[C@]4(C)[C@H]3CC[C@]12C [Compound 11]	–	151	–	157	–	–	–	–
C[C@H](CCC(O)c1ccncc1)[C@H]1CC[C@H]2[C@@H]3CC=C4C[C@@](C)(O)CC[C@]4(C)[C@H]3CC[C@]12C (stereo partly drawn) [Compound 154]	–	18.2	–	–	> 10000	–	–	–
C[C@H](CC[C@]1(O)CCOC1)[C@H]1CC[C@H]2[C@@H]3CC=C4C[C@](O)(C(F)(F)F)CC[C@]4(C)[C@H]3CC[C@]12C [Compound 3496]	35.1	–	–	–	–	–	–	–
C[C@H](CC[C@]1(O)CC[C@H](C)CC1)[C@H]1CC[C@H]2[C@@H]3CC[C@H]4C[C@](O)(C(F)(F)F)CC[C@]4(C)[C@H]3CC[C@]12C [Compound 3877]	–	–	512	–	–	–	–	–
CC[C@]1(O)CC[C@@]2(C)C(=CC[C@H]3[C@@H]4CC[C@H]([C@H](C)CC[C@H](O)c5ccc(F)cc5)[C@@]4(C)CC[C@@H]32)C1 [Compound 7146]	–	–	216	–	–	–	–	–
C[C@H](CC[C@@](C)(O)c1ccccc1)[C@H]1CC[C@H]2[C@@H]3CC=C4C[C@@](C)(O)CC[C@]4(C)[C@H]3CC[C@]12C [Compound 7467]	–	–	> 10000	–	–	–	–	–
